Test results published in PMC3493109 (Biochemistry, 2012).

Assays:
Format in all cases: binding
[1] = molecular target: T1, glyoxylate carboligase (GCL) (Escherichia coli, UniProt P0AEP7, I393A); experiment: CD titration at […] nm, Hill fit
[2] = molecular target: glyoxylate carboligase (GCL) (Escherichia coli, UniProt P0AEP7, I393A/V51D); experiment: CD titration at […] nm
[3] = molecular target: T1, glyoxylate carboligase (GCL); experiment: CD titration at […] nm

T1 sequence (P0AEP7 2-593 I393A limits assumed): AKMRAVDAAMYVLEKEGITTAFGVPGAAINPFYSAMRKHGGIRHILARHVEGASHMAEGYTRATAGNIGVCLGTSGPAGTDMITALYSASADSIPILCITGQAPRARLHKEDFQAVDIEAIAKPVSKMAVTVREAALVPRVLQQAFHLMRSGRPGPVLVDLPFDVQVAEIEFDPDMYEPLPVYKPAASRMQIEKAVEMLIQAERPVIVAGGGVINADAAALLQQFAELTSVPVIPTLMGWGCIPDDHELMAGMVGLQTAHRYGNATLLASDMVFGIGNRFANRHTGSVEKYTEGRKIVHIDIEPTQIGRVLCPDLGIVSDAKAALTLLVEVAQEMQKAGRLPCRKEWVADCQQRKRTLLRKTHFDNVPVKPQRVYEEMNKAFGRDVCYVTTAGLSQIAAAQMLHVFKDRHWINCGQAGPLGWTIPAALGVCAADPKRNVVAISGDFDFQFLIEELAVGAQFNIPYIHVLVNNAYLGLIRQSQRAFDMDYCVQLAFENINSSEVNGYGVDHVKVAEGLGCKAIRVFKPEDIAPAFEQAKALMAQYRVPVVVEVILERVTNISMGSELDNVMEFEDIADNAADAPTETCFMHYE
glyoxylate carboligase (GCL) (Escherichia coli, UniProt P0AEP7, I393A/V51D), sequence (P0AEP7 2-593 V51D/I393A limits assumed): as the sequence (P0AEP7 2-593 I393A limits assumed) above, with V50D counted along it

Row | Structure (SMILES) | Kd [1] [µM] | Kd [2] [µM] | Kd [3] [µM]
1 | CC(=O)C(=O)O [pyruvate] | 8.2 |  | 
2 | COP(=O)(O)C(C)=O [MAP] |  | 110 ± 100 | 1400 ± 90
